Values after ≈ are worked out from the molar mass of the structure shown.
Columns and labels:
[1] = molecular target: T1, Solute carrier family 22 member 12 (Homo sapiens, UniProt Q96S37); test: Inhibition of human C-terminal eGFP-tagged URAT1 long isoform expressed in CHO cells assessed as decrease in [14C]-uric acid uptake preincubated for 15 mins followed by [14C]-uric acid addition and incubated in dark for 3 hrs by scintillation counting method; format: cell-based
T1 sequence (Q96S37 whole entry): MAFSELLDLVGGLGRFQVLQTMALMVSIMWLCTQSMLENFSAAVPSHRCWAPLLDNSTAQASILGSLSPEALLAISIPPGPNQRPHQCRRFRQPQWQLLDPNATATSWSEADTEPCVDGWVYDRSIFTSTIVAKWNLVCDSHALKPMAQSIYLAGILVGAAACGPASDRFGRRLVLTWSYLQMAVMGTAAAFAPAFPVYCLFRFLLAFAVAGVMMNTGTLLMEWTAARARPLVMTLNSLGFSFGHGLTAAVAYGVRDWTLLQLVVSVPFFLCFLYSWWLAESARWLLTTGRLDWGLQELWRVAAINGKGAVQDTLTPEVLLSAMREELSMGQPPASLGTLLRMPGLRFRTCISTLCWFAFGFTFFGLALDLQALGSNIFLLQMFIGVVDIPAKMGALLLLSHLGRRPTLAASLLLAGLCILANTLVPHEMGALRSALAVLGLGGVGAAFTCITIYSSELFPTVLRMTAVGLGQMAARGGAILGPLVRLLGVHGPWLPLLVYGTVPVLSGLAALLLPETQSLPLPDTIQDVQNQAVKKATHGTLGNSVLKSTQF

[2] = Intrinsic clearance in human liver microsomes; format: ADME; conditions: read-out: CLH
[3] = Cytotoxicity against THLE cells; format: toxicity, cell-based; conditions: human
[4] = molecular target: Solute carrier organic anion transporter family member 1B1 (Homo sapiens, UniProt Q9Y6L6); test: Drug uptake assessed as human OATP1B1-mediated drug accumulation by cell-based assay relative to wild type protein; format: ADME
[5] = Drug excretion in bile of bile duct cannulated rat; format: ADME; conditions: read-out: Drug excretion
[6] = Fraction unbound in human plasma; format: ADME, cell-free
Cytochrome P450 2C9 = Cytochrome P450 2C9 (Homo sapiens, UniProt P11712); test: Inhibition of CYP2C9 (unknown origin); format: ADME
[7] = Toxicity in dog up to 100 mg/kg/day, po measured over 14 days by histologic test; format: organism-based, Canis lupus familiaris; conditions: in vivo, 336 h
[8] = molecular target: Solute carrier organic anion transporter family member 2B1 (Homo sapiens, UniProt O94956); test: Drug uptake assessed as human OATP2B1-mediated drug accumulation by cell-based assay relative to wild type protein; format: ADME
[9] = Average plasma concentration in rat at 300 mg/kg, po administered as single dose measured on day 14; format: ADME, organism-based; conditions: in vivo
[10] = Volume of distribution at steady state in rat at 0.5 mg/kg, iv and 1 mg/kg, po; format: ADME, organism-based; conditions: in vivo, read-out: Vdss
[11] = molecular target: Sodium channel protein type 9 subunit alpha (Homo sapiens, UniProt Q15858); test: Inhibition of NaV1.7 (unknown origin) by electrophysiology assay
[12] = Octanol-water partition co-efficient, log D of the compound by shake flask method; format: physicochemical
Cytochrome P450 2C19 = Cytochrome P450 2C19 (Homo sapiens, UniProt P33261); test: Inhibition of CYP2C19 (unknown origin); format: ADME
[13] = Mutagenicity in […] by Ames test in absence of […] fraction; format: toxicity
[14] = Permeability in RRCK cells; format: ADME, cell-based, Canis lupus familiaris, MDCKII-LE; conditions: dog, MDCK; read-out: permeability
[15] = Oral bioavailability in rat at 1 mg/kg; format: ADME, organism-based; conditions: in vivo
[16] = Unbound Cmax in rat at 30 mg/kg, po administered as single dose measured on day 14; format: ADME, organism-based; conditions: in vivo
[17] = Unbound Cmax in dog at 100 mg/kg, po administered as single dose measured on day 14; format: ADME, organism-based, Canis lupus familiaris; conditions: in vivo
[18] = Intrinsic clearance in human hepatocytes assessed per 10^6 cells; format: ADME, cell-based, Hepatocyte; conditions: read-out: CLH
[19] = Toxicity in dog up to 100 mg/kg/day, po measured over 14 days by clinical pathology test; format: organism-based, Canis lupus familiaris; conditions: in vivo, 336 h
[20] = Solubility of the compound at pH 6.5; format: physicochemical; conditions: buffer
[21] = molecular target: Solute carrier family 22 member 11 (Homo sapiens, UniProt Q9NSA0); test: Inhibition of OAT4 (unknown origin)
[22] = Plasma clearance in rat at 0.5 mg/kg, iv and 1 mg/kg, po; format: ADME, organism-based
[23] = Dissociation constant, pKa of the compound; format: physicochemical
Rattus norvegicus [24] = test: Toxicity in rat assessed as change in body weight up to 300 mg/kg/day, po measured over 14 days; format: organism-based; conditions: in vivo, 336 h
[25] = Unbound Cmax in rat at 300 mg/kg, po administered as single dose measured on day 14; format: ADME, organism-based; conditions: in vivo
[26] = Toxicity in dog assessed as salivation at 100 mg/kg/day, po measured over 14 days by histologic test; format: organism-based, Canis lupus familiaris; conditions: in vivo, 336 h
[27] = Average plasma concentration in rat at 30 mg/kg, po administered as single dose measured on day 14; format: ADME, organism-based; conditions: in vivo
[28] = Drug metabolism in rat hepatocytes assessed as (2S,3S,4S,5R,6R)-6-(2-chloro-4-(2-cyano-4-(N-(5-fluoropyridin-2-yl)sulfamoyl)phenoxy)benzyloxy)-3,4,5-trihydroxytetrahydro-2H-pyran-2-carboxylic acid formation; format: ADME, cell-based, Hepatocyte
[29] = molecular target: Organic anion transporter 3 (Homo sapiens, UniProt Q8TCC7); test: Inhibition of OAT3 (unknown origin)
Rattus norvegicus [30] = test: Toxicity in rat up to 300 mg/kg/day, po measured over 14 days by microscopic study; format: organism-based; conditions: in vivo, 336 h
[31] = Toxicity in dog assessed as decrease in hepatic glycogen content at 100 mg/kg/day, po measured over 14 days; format: organism-based, Canis lupus familiaris; conditions: in vivo, 336 h
[32] = molecular target: Solute carrier family 22 member 6 (Homo sapiens, UniProt Q4U2R8); test: Inhibition of OAT1 (unknown origin)
[33] = Intrinsic clearance in rat hepatocytes assessed per 10^6 cells; format: ADME, cell-based, Hepatocyte; conditions: read-out: CLH
[34] = Toxicity in po dosed dog measured assessed as drug tolerance measured over 14 days; format: organism-based, Canis lupus familiaris; conditions: in vivo, 336 h
Rattus norvegicus [35] = test: Toxicity in rat up to 300 mg/kg/day, po measured over 14 days by clinical chemistry study; format: organism-based; conditions: in vivo, 336 h
[36] = Mutagenicity in […] by Ames test in presence of […] fraction; format: toxicity
Rattus norvegicus [37] = test: Cardiovascular toxicity in rat up to 30 mg/kg/day, po measured over 14 days; format: organism-based; conditions: in vivo, 336 h
[38] = Intrinsic clearance in dog liver microsomes; format: ADME, Canis lupus familiaris; conditions: read-out: CLH
[39] = Fraction unbound in dog plasma; format: ADME, cell-free, Canis lupus familiaris
[40] = Intrinsic clearance in dog hepatocytes assessed per 10^6 cells; format: ADME, cell-based, Canis lupus familiaris, Hepatocyte; conditions: read-out: CLH
Cytochrome P450 3A4 = Cytochrome P450 3A4 (Homo sapiens, UniProt P08684); test: Inhibition of CYP3A4 (unknown origin); format: ADME
Rattus norvegicus [41] = test: Toxicity in rat assessed as increase in blood pressure at 100 mg/kg/day, po measured over 14 days; format: organism-based; conditions: in vivo, 336 h
Cytochrome P450 1A2 = Cytochrome P450 1A2 (Homo sapiens, UniProt P05177); test: Inhibition of CYP1A2 (unknown origin); format: ADME
Rattus norvegicus [42] = test: Toxicity in rat up to 300 mg/kg/day, po measured over 14 days by necropsy; format: organism-based; conditions: in vivo, 336 h
Rattus norvegicus [43] = test: Toxicity in po dosed rat assessed as drug tolerance measured over 14 days; format: organism-based; conditions: in vivo, 336 h
[44] = Unbound clearance in rat at 0.5 mg/kg, iv and 1 mg/kg, po; format: ADME, organism-based; conditions: in vivo
[45] = Toxicity in dog assessed as emesis at 100 mg/kg/day, po measured over 14 days by histologic test; format: organism-based, Canis lupus familiaris; conditions: in vivo, 336 h
[46] = Inhibition of GABAA receptor (unknown origin); set-up: species or system Homo sapiens
[47] = Fraction unbound in rat plasma; format: ADME, cell-free
[48] = molecular target: Voltage-gated inwardly rectifying potassium channel KCNH2 (Homo sapiens, UniProt Q12809); test: Inhibition of human ERG by patch clamp method
[49] = Drug metabolism in human hepatocytes assessed as 2-chloro-4-(2-cyano-4-(N-(5-fluoropyridin-2-yl)sulfamoyl)phenoxy)benzoic acid formation; format: ADME, cell-based, Hepatocyte
[50] = Drug metabolism in human liver microsomes assessed as 2-chloro-4-(2-cyano-4-(N-(5-fluoropyridin-2-yl)sulfamoyl)phenoxy)benzoic acid formation; format: ADME
[51] = molecular target: Solute carrier organic anion transporter family member 1B3 (Homo sapiens, UniProt Q9NPD5); test: Drug uptake assessed as human OATP1B3-mediated drug accumulation by cell-based assay relative to wild type protein; format: ADME
[52] = Average plasma concentration in dog at 100 mg/kg, po administered as single dose measured on day 14; format: ADME, organism-based, Canis lupus familiaris; conditions: in vivo
BCRP (ABCG2) = BCRP (ABCG2) (Homo sapiens, UniProt Q9UNQ0); test: Substrate activity at BCRP (unknown origin) assessed as efflux ratio of permeability; format: ADME; conditions: not told
[53] = Half life in rat at 0.5 mg/kg, iv and 1 mg/kg, po; format: ADME, organism-based; conditions: in vivo
P-gp = test: Substrate activity at p-gp (unknown origin) assessed as efflux ratio of permeability; format: ADME; conditions: human, not told
Rattus norvegicus [54] = test: Toxicity in rat assessed as change in food consumption up to 300 mg/kg/day, po measured over 14 days; format: organism-based; conditions: in vivo, 336 h
Rattus norvegicus [55] = test: Toxicity in rat assessed as hematological changes up to 300 mg/kg/day, po measured over 14 days; format: organism-based; conditions: in vivo, 336 h
[56] = Toxicity in dog assessed as decrease in serum glucose at 100 mg/kg/day, po measured over 14 days; format: organism-based, Canis lupus familiaris; conditions: in vivo, 336 h
[57] = Intrinsic clearance in rat liver microsomes; format: ADME; conditions: read-out: CLH
[58] = molecular target: Sodium channel protein type 5 subunit alpha (Homo sapiens, UniProt Q14524); test: Inhibition of human NaV1.5 expressed in HEK293 cells by patch clamp method; format: cell-based
Cytochrome P450 2D6 = Cytochrome P450 2D6 (Homo sapiens, UniProt P10635); test: Inhibition of CYP2D6 (unknown origin); format: ADME
Cytochrome P450 2C8 = Cytochrome P450 2C8 (Homo sapiens, UniProt P10632); test: Inhibition of CYP2C8 (unknown origin); format: ADME
Rattus norvegicus [59] = test: Toxicity in rat assessed as change in organ weight up to 300 mg/kg/day, po measured over 14 days; format: organism-based; conditions: in vivo, 336 h

Chain of BCRP (ABCG2) (Q9UNQ0 whole entry): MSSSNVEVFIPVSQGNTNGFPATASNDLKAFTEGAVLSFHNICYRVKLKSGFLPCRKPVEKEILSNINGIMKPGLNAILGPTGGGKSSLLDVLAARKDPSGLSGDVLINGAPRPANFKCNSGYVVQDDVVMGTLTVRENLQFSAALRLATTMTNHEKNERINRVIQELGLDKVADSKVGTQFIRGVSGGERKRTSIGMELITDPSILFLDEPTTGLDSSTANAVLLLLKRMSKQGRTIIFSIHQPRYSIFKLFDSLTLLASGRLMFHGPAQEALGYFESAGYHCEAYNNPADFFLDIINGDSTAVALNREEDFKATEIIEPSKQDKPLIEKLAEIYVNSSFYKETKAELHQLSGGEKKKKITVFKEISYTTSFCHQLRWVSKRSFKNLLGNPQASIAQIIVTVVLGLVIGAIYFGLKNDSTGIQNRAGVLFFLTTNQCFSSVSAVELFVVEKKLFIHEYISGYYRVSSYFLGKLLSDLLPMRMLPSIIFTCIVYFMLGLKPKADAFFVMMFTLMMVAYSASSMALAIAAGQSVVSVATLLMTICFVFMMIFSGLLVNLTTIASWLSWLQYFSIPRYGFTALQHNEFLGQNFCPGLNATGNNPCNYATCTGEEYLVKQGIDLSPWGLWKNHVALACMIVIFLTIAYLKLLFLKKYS
Chain of Solute carrier family 22 member 6 (Q4U2R8 whole entry): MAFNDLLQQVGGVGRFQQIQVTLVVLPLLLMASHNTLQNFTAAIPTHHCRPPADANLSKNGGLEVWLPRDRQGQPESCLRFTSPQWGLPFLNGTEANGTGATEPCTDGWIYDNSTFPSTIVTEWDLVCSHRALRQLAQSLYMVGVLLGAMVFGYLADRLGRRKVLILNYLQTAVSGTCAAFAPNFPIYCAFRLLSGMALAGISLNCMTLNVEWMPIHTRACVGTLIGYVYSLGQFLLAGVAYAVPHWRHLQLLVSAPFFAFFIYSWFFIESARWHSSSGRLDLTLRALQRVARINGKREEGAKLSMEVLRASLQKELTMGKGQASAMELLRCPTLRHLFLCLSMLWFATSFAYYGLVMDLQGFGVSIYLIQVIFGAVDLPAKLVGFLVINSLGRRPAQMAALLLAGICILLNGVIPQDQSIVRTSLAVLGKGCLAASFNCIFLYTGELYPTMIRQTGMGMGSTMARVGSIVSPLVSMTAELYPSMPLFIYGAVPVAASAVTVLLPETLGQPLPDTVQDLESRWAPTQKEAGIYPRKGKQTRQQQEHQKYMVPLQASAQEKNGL
Chain of Cytochrome P450 2C19 (P33261 whole entry): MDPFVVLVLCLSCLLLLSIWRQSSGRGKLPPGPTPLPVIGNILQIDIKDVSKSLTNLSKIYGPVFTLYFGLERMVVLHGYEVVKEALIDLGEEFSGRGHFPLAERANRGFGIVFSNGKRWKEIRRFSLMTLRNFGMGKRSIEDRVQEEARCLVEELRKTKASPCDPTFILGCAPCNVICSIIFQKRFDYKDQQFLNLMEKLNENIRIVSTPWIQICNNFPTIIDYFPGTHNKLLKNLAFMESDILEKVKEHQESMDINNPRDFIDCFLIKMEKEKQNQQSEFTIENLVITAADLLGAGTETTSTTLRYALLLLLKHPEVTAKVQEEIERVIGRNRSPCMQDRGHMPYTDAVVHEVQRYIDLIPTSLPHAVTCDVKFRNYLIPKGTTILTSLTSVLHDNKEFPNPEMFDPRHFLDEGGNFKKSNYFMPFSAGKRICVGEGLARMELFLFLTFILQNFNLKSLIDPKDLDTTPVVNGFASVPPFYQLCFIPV
Chain of Cytochrome P450 2C9 (P11712 whole entry): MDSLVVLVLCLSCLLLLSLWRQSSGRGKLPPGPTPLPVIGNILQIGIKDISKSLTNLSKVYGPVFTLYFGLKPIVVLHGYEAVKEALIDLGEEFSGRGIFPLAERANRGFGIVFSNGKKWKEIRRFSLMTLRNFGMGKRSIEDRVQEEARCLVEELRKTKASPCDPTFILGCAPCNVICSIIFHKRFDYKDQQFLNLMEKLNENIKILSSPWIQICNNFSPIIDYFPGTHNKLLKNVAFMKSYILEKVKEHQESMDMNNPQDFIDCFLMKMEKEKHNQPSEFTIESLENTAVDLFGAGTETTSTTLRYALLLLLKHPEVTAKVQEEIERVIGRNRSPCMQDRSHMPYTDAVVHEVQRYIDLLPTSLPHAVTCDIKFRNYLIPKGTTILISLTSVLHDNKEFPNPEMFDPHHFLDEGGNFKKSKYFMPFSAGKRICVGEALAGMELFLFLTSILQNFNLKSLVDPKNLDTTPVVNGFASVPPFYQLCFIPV
Chain of Solute carrier organic anion transporter family member 1B3 (Q9NPD5 whole entry): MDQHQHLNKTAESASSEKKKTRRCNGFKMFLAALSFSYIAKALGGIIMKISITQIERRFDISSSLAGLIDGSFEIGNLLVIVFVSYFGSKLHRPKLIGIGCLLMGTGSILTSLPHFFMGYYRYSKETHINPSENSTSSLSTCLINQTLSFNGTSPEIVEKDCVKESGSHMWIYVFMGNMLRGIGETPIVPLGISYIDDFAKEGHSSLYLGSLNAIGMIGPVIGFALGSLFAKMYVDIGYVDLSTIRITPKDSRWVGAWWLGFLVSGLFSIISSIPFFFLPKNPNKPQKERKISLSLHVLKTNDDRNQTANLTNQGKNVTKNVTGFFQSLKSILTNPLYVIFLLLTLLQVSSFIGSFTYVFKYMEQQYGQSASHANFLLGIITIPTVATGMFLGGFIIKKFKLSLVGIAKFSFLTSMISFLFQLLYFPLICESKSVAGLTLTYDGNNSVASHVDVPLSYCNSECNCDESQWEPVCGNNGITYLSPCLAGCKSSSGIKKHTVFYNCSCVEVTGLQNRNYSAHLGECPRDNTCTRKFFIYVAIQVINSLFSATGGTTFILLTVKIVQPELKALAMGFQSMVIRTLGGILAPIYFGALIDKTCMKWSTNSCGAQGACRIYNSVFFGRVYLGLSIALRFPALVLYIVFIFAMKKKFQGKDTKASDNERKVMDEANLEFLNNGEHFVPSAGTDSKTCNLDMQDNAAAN
Chain of Cytochrome P450 3A4 (P08684 whole entry): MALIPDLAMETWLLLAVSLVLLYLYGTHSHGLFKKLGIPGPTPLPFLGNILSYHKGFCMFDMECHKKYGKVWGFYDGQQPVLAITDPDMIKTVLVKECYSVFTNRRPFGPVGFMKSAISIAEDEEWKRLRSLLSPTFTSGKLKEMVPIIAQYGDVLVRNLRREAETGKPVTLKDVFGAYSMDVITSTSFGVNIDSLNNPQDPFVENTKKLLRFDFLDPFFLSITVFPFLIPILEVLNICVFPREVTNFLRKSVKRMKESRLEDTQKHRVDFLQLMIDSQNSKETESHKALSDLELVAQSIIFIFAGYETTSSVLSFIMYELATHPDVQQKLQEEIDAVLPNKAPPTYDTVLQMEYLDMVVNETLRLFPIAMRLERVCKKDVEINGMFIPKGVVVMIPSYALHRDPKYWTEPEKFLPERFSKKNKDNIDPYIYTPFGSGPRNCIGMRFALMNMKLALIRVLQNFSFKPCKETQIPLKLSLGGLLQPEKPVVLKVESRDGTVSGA
Chain of Cytochrome P450 1A2 (P05177 whole entry): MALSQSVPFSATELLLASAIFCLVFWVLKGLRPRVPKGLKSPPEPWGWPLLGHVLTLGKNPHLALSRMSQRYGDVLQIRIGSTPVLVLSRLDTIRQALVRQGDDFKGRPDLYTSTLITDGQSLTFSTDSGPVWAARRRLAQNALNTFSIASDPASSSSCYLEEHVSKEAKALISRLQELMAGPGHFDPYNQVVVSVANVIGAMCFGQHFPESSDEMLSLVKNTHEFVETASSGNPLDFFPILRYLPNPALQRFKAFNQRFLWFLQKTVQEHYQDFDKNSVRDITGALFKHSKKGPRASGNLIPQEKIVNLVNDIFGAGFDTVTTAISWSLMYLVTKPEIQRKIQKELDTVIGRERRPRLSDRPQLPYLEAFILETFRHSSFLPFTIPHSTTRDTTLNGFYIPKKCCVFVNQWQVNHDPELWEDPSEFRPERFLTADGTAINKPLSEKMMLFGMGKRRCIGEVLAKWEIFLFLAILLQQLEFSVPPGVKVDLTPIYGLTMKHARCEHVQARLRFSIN
Chain of Solute carrier family 22 member 11 (Q9NSA0 whole entry): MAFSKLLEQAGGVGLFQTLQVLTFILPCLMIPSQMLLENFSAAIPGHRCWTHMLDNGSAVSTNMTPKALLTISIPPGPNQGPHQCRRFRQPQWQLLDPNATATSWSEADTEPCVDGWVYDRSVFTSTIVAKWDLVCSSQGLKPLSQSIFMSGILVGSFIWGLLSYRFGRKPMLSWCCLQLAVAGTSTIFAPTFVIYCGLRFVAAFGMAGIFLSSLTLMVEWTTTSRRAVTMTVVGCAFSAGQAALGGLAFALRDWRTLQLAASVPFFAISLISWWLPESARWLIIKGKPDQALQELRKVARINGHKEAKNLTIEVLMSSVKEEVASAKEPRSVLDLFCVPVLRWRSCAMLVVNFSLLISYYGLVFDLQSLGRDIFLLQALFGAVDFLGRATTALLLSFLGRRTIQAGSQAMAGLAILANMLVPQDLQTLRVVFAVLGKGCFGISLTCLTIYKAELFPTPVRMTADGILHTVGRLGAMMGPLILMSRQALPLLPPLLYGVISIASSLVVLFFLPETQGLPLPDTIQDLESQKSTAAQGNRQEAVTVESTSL
Chain of Organic anion transporter 3 (Q8TCC7 whole entry): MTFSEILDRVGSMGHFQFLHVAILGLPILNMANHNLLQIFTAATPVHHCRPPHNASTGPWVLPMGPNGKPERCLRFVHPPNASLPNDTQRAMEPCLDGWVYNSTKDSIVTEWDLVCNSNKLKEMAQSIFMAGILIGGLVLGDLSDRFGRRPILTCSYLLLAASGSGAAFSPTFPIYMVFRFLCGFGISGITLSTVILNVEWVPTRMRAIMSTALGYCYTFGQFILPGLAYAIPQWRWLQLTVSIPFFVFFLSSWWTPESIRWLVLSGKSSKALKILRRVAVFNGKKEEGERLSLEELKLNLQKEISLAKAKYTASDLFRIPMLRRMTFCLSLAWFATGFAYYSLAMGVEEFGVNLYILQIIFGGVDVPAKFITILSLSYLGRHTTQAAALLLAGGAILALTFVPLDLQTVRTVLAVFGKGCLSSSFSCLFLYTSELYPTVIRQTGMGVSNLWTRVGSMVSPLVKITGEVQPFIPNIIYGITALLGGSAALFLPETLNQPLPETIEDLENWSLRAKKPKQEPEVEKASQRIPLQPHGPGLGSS

N#Cc1ccc(Oc2ccc(S(=O)(=O)Nc3ccc(F)cn3)cc2F)cc1F
IC50 [1]: 0.382 µM

N#Cc1ccc(Oc2ccc(S(=O)(=O)Nc3ccc(F)cn3)cc2)cc1F
IC50 [1]: 0.088 µM

N#Cc1ccc(Oc2ccc(S(=O)(=O)Nc3ccc(F)cn3)c(F)c2)cc1F
IC50 [1]: 0.037 µM

N#Cc1ccc(Oc2ccc(S(=O)(=O)Nc3ccncn3)cc2C#N)cc1Cl
IC50 [1]: 5.15 µM

N#Cc1cc(S(=O)(=O)Nc2ccc(F)cn2)ccc1Oc1ccc(CO)c(Cl)c1
microsomal CLint [2]: < 10 µL/min/mg
Activity [3]: 105 µM
fold change (FC) [4]: 1.181
dose excreted [5]: 10%
fraction unbound [6]: 0.0083
IC50 (Cytochrome P450 2C9): 2 µM
Activity [7]: Non-Toxic
fold change (FC) [8]: 1.48
Cave [9]: 240 nM
Vd [10]: 0.27 L/kg
IC50 [11]: > 30 µM
logD [12]: 2.1
IC50 (Cytochrome P450 2C19): 17.5 µM
Activity [13]: Non-Toxic
Papp [14]: 12 ×10⁻⁶ cm/s
bioavailability [15]: 50%
fCmax [16]: 98 nM
fCmax [17]: 3.905 µM
hepatocyte CLint [18]: 23 µL/min/1e6 cells
Activity [19]: Non-Toxic
solubility [20]: 15.3 µM (≈ 6.64 µg/mL)
IC50 [21]: 15 µM
clearance [22]: 1.3 mL/min/kg
pKa [23]: 5.7
Activity (Rattus norvegicus [24]): Non-Toxic
fCmax [25]: 537 nM
Activity [26]: Toxic
Cave [27]: 43 nM
Drug metabolism [28]: Metabolite_Detected
IC50 [29]: 0.5 µM
Activity (Rattus norvegicus [30]): Non-Toxic
Activity [31]: Toxic
IC50 [32]: 14.3 µM
hepatocyte CLint [33]: 82 µL/min/1e6 cells
Activity [34]: <= 100 mg/kg/day
Activity (Rattus norvegicus [35]): Non-Toxic
Activity [36]: Non-Toxic
Activity (Rattus norvegicus [37]): Non-Toxic
microsomal CLint [38]: < 18 µL/min/mg
fraction unbound [39]: 0.014
hepatocyte CLint [40]: < 6 µL/min/1e6 cells
IC50 (Cytochrome P450 3A4): > 30 µM
Activity (Rattus norvegicus [41]): Non-Toxic
IC50 (Cytochrome P450 1A2): > 30 µM
Activity (Rattus norvegicus [42]): Non-Toxic
Activity (Rattus norvegicus [43]): <= 300 mg/kg/day
CL free [44]: 93 mL/min/kg
Activity [45]: Toxic
Ki [46]: > 10 µM
fraction unbound [47]: 0.0043
IC50 [48]: > 100 µM
Drug metabolism [49]: Metabolite_Detected
Drug metabolism [50]: Metabolite_Detected
fold change (FC) [51]: 1.124
Cave [52]: 1019 nM
efflux ratio (BCRP (ABCG2)): 34
half-life [53]: 3.9 h
efflux ratio (P-gp): 1.9
Activity (Rattus norvegicus [54]): Non-Toxic
Activity (Rattus norvegicus [55]): Non-Toxic
Activity [56]: Toxic
microsomal CLint [57]: < 14 µL/min/mg
IC50 [58]: > 30 µM
IC50 (Cytochrome P450 2D6): > 30 µM
IC50 (Cytochrome P450 2C8): 9.9 µM
Activity (Rattus norvegicus [59]): Non-Toxic

— ChEMBL document CHEMBL3853264 (Medchemcomm, 2016)
